# In a melting point compilation (Tetko et al.; mined from patent text by program, amines drawn as free bases though some values may be those of a salt):
row,Structure (SMILES),melting point [°C]
1,Nc1ccc(N2C(=O)c3ccc(Cl)cc3C2=O)c(Cl)c1,198 to 201
2,CCCCCCCCCCNC(=O)Nc1ccccc1C(=O)NC1CCN(C(c2ccccc2)c2ccccc2)CC1,204 to 206
3,CN1CCC(C2Cc3ccccc3C(=O)N2)CC1 (centres undefined),139 to 141
4,CN=C(ON1C(=O)c2ccccc2C1=O)c1ccccc1,174 to 176
5,CCc1ccc2c3c(ccc(C=O)c13)-c1ccccc1-2,114 to 116
6,CCOC(=O)N(CC)c1cccc(-c2ccnc3ccnn23)c1,79 to 81
7,N#Cc1nn(-c2c(Cl)cc(Cl)cc2Cl)c(N)c1C#N,267 to 271
8,CC1(C)COC(c2ccc(F)cc2-c2ccc3c(c2)CCC(Cc2ccccc2)C3=O)=N1 (centres undefined),114 to 115
9,CC(C)(C)OC(=O)N(CCOc1cccc2[nH]ccc12)Cc1ccccc1,46 to 48
10,S=c1n(CN2CCCC2)nc(-c2ccncc2)n1-c1ccccc1,139
11,Clc1cccc(Cc2ccc(OCCCn3cccn3)c(Cl)c2)c1,52.5
12,CC(C)c1onc(-c2c(Cl)cccc2Cl)c1COc1ccc(NCc2ccc(C(=O)O)cc2)c(C(F)(F)F)n1,259 to 260
13,CCC(=O)OC(C#N)C(C#N)c1cccc(OC)c1 (centres undefined),73
14,Nc1nc(=O)n(C2OC(CO)C(O)C2F)cc1Br (centres undefined),201 to 202
15,O=[N+]([O-])C=C1NCCN1Cc1ccc(OCC(F)(F)F)nc1,132 to 135
16,c1ccc2[nH]c(C34CC5CC(CC(C5)C3)C4)cc2c1,48
17,Cc1ccc(-c2cc(CN3C(=O)c4ccccc4C3=O)c(=O)n(CC(C)C)n2)cc1,222 to 224
18,COc1cc(-c2nc3ccc(OC(F)(F)F)cc3[nH]2)ccc1O,188 to 190
19,COc1cc(C)ccc1-c1nc(C)c(-c2cccnc2)n1O,75 to 80
20,Cc1cccc(NC(=O)NCC(=O)N(c2ccccc2)C(C(=O)OC(C)(C)C)c2ccc(Cl)cc2)c1 (racemic),167
21,O=C(Oc1ccccc1)C1CCCc2ccc([N+](=O)[O-])cc21 (centres undefined),83 to 84
22,CCn1cnc2cc(C(F)(F)F)c(Cl)c(N)c21,192 to 193
23,CC1(C)[C@H]2[C@H](O)OC(=O)[C@H]21,116
24,C=CCN(C)C(=O)Nc1cc(C(C)(C)C)on1,90 to 91
25,N#CCCN1CCC(c2ccccc2)(c2ccccc2)CC1,95 to 96
26,CC1SC(=O)NN=C1c1ccc2c(c1)C(=Cc1cccnc1)C(=O)N2 (centres undefined),285

row,Structure (SMILES),melting point [°C]
1,CC(C)CCC(=O)N[C@H]1CC[C@H](CCN2CCC(c3cccc4c3CCO4)CC2)CC1,188
2,O=S(=O)(NC(=S)NC1CCCCC1)c1cnccc1NC1CCCCCC1,195 to 197
3,C=C(C)C(=O)Oc1ccc(C(=O)c2ccccc2)cc1,69.5 to 70.5
4,Nc1ccc(C(=O)N2CCCCCC2=O)cc1,156 to 158
5,CCn1nccc1-c1ccc2[nH]c3c(cc(-c4ccc(Cl)cc4Cl)c(=O)n3C)c2c1,255 to 258
6,FC(F)(F)c1cccc(CSc2nnc(-c3ccc4ncsc4c3)o2)c1,112 to 113
7,Nc1ccc(C(=O)OCCOC(=O)C[C@@H](C(=O)O)n2c3ccccc3c3ccccc32)cc1,100
8,Cc1cccc(C)c1C(=O)Oc1cc([N+](=O)[O-])cc([N+](=O)[O-])c1O,163 to 165
9,N#Cc1c(N)cccc1N,91 to 92
10,Cc1cc(O)c2c(c1)CCCC2,95 to 96
11,CCn1cc(C(=O)O)c(=O)c2cc(F)c(C)c(F)c21,245 to 248
12,C[C@@H](c1ccc(-c2ccc(C#N)cn2)cc1)N1CC[C@](CC(C)(C)O)(c2ccc(F)cc2)OC1=O,155 to 157
13,CC(=O)C(=Cc1cc(O)c(O)c(Cl)c1)C(C)=O,167 to 171
14,CN(Cc1ccc(NC(=O)C2=Cc3cc(-c4ccc(OC(F)(F)F)cc4)ccc3OCC2)cc1)C1CCOCC1,187 to 188
15,CCCCN1C(=O)N(C2CCN(CC3CCCCC3)CC2)C(c2ccccc2)c2ccccc21 (centres undefined),115 to 117
16,O=[N+]([O-])c1cc(C(F)(F)F)ccc1SCc1ccccc1,132 to 136
17,O=c1ccc2ccc3ccc(Br)cc3c(=O)c2[nH]1,268 to 269
18,ClC(c1ccccc1)c1cccnn1 (centres undefined),110 to 112
19,C#CC1(c2ccc(OC)c(OC3CCCC3)c2)CC(=O)C1,58 to 59
20,COc1ccc(C(=O)c2ccccc2C(F)(F)F)c(O)c1Cl,101 to 102
21,O=C(O)CCCC12CCC(=O)N1C(=O)CC2,178 to 180
22,O=C(C1CCN(c2ccncn2)CC1)N1CCN(Cc2ccccc2)CC1,107 to 108
23,CS(=O)c1ccc(C2ON2S(=O)(=O)c2ccccc2)cc1 (centres undefined),115 to 118
24,CC1=C(CC2=CC(=O)C=CC2=O)C(=O)C2C=CC=CC2C1=O (centres undefined),142 to 144
25,CC(C)(C)OC(=O)NCC1(CC(=O)O)CCCCC1,109 to 111
26,Clc1cc(-c2ccccc2)nc(Cl)n1,80 to 85

# Second part, the compound after the results:
row,melting point [°C],Structure (SMILES)
1,295,O=c1ccc2ccc(Br)cc2[nH]1
2,208 to 210,CC(=O)NC[C@H]1CN(c2ccc(N3CCC(n4cccc4)CC3)c(F)c2)C(=O)O1
3,175 to 177,Nc1nc2ccccc2c2c1ncn2CCCCS(=O)(=O)c1ccccc1
4,134 to 135,CCN(CC)C(=O)n1cnc(S(=O)(=O)c2ccccc2OCC(F)(F)F)n1
5,135 to 136,CCCCNC(=O)NS(=O)(=O)C(C)=Cc1ccccc1
6,69 to 71,O=C(NCc1ccc(Oc2ccccc2)cc1)C1CCC1
7,101 to 105,CCOC(=O)ON=C(N)c1cccc(Oc2ccc3c(c2)S(=O)(=O)N=C2CCCN23)c1
8,41 to 42,CCOC(=O)CCCCCCc1ccc2ccccc2c1O
9,124 to 125,O=C(CCc1ccccc1)N[C@H](Cc1ccc(C(F)(F)F)cc1)[C@@H](O)c1ccccc1F (racemic)
10,91 to 93,N#CSCC(=O)c1cccc(Br)c1
11,155 to 162,Nc1nc2ccc(S(=O)(=O)n3c(CCCC(=O)O)cc4cc(Cl)ccc43)cc2s1
12,106 to 108,CC(=O)Nc1nc(CCc2ccc(CCCN)s2)cs1
13,169 to 171,Cc1oc(-c2ccccc2)nc1CCOc1ccc(CCCC2OC(=O)NC2=O)cn1 (centres undefined)
14,> 300,Cn1cnc2nc(-c3ccc(C#N)cc3)nn2c1=S
15,149,Cc1nc2n(c(=O)c1CCO)CCS2
16,193 to 194,CC(=O)NCCCNc1ccc(NCCN(C)C)c2c1C(=O)c1ccccc1C2=O
17,104,N#CC(CC(=O)O)c1ccc(Cl)c(Cl)c1 (centres undefined)
18,62 to 63,CCCCCCCCOC(=O)CCc1cc(-n2nc3ccc(S(=O)(=O)c4ccccc4)cc3n2)c(O)c(C(C)(C)C)c1
19,92 to 94,COC(=O)C(C)Oc1cc(C)ccc1COc1ccc([N+](=O)[O-])c(F)c1 (centres undefined)
20,268 to 269,Cc1ccc(S(=O)(=O)Nc2cccc3cc(C(=O)O)[nH]c23)cc1
21,60 to 62,C=CCc1cc(C(=O)c2ccccc2)c(O)cc1OCCCCC#N
22,107 to 112,O=C(c1cnc2ccccc2c1)N1CCC(c2ccccc2)=N1
23,79 to 82,CCCCCCOC(Cc1ccc(OCCc2nc(-c3ccccc3)oc2C)c2ccsc12)C(=O)O (centres undefined)
24,248 to 249,Cc1nc(N2CCN(Cc3ccccc3)C2=O)sc1C(=O)O
25,200,Cn1cnnc1C(O)(c1ccc(Cl)cc1)c1ccc2c(c1)c(CCc1cccc(Cl)c1)cc(=O)n2C (centres undefined)
26,173 to 174,CCCc1nc2c(N)nc3ccccc3c2n1CCCCNC(=O)c1ccccc1

row,melting point [°C],Structure (SMILES)
1,67,C#CC(O)c1ccc(C(=O)OC)s1 (centres undefined)
2,61 to 62,CCOC(=O)c1c(O)c2cc(F)ccc2c(=O)n1CC1CC1
3,113 to 115,CC(=O)Oc1cc(-c2ccccc2)oc(=O)c1Sc1ccccc1C(C)C
4,151 to 152,COC(=O)C1=C(C)NC(C)=C(C(=O)OCCCCCCCC#N)C1c1cccc([N+](=O)[O-])c1 (centres undefined)
5,99,Cc1cccc(C)c1N(Cn1cnc(Cl)c1Cl)C(=O)CCl
6,> 300,Nc1ncnc2cc(CCl)ccc12
7,66.1 to 68.5,CCCCc1nc2sc3c(NCc4ccco4)ncnc3c2c2c1COC(C)(C)C2
8,225 to 260,CC(=O)N1CC(C)(C)c2cc3nc(-c4ccnnc4)[nH]c3cc21
9,125 to 126,Cc1ccccc1Nc1nc(Cl)nc2c(C)cccc12
10,208 to 210,CCCCNC(=O)NS(=O)(=O)c1ccc(CCNC(=O)N2Cc3ccc(Cl)cc3C2=O)cc1
11,106 to 107,CCC(=O)O[C@@H]1[C@@H](c2ccccc2)Nc2c(ccn3c(C)c(C)nc23)[C@H]1OCCOC
12,126,CC(=O)CCN(CCN)c1nc2cc(Cl)ccc2o1
13,249,c1cc2c3c(nnc4c3c1OCC4)CCO2
14,211 to 213,CCn1cc(CN(C(=O)C2CCCc3c(O)cccc32)c2ccc(OC)cc2)cn1 (centres undefined)
15,99 to 103,C=CCc1cc(C(=O)OC)ccc1-c1ccc(OC)c(OC)c1
16,82 to 83,OCc1cc2cccc(Br)c2s1
17,152 to 153,CN(O)C(=O)c1ccc(CCCNc2ccc(O)cc2)cc1
18,84 to 86,CC1CN(c2ccc(Cl)cc2)N=C1NCC(F)(F)F (centres undefined)
19,114,N#Cc1ccc(C=O)c(-c2cccs2)c1
20,106 to 108,CCCc1nn(C)c2c(=O)n(CCOc3ccc(SC(C)(C)C(=O)OCC)cc3)c(C)nc12
21,249 to 251,CCNCC1CCN(c2c(F)cc3c(=O)c(C(=O)O)cn(-c4ccc(F)cc4)c3c2F)C1 (centres undefined)
22,95 to 97,CS(=O)(=O)c1sccc1SCc1ccccc1
23,73 to 76,O=C(O)Cc1cc(Cl)cc(Cl)c1OCCc1ccccc1
24,124 to 126,CCc1ccc2c(c1)C(=O)Nc1cccnc1N2C(=O)NCCN1CCCCC1CN(CC)CC (centres undefined)
25,144 to 146,CC(C)C1(C)NC(c2ccccc2C(=O)N(C)C)=NC1=O (centres undefined)
26,156 to 158,N#Cc1ccc(Cl)cc1OCC(O)CNc1ccccc1OC1CC=NNC1=O (centres undefined)
